According to ChEMBL document CHEMBL3988442, “University of Dundee, Small-Polar-MMV Screening Library” (2021):
Several values for one entry are separate records, joined by “and”; a condition that tells them apart may be missing. Identical values can stand only once.

Tests used:
Wolbachia pipientis = assay: Anti-Wolbachia Cell-Based Screen; assay type: functional; conditions: for IC50: Wolbachia pipientis
Lysine--tRNA ligase = Lysine--tRNA ligase (Plasmodium falciparum (isolate 3D7), UniProt Q8IDJ8); assay: Pf-KRS-1 (Lysyl-RNA Synthetase-1, KRS-1, cytosolic KRS) from Plasmodium falciparum. Inhibitor assay, 384 well plate, luminescence read.; assay type: functional
[1] = biological target: Polyketide synthase Pks13 (Mycobacterium tuberculosis (strain ATCC 25618 / H37Rv), UniProt I6X8D2); assay: Mycobacterium tuberculosis Polyketide synthase 13 Thioesterase (PKS13); assay type: functional
[2] = microbe, parasite or virus in culture; conditions: Mycobacterium tuberculosis, 96 h, read-out: pIC50 (converted)
[3] = microbe, parasite or virus in culture; conditions: Mycobacterium tuberculosis, 72 h, read-out: pIC50 (converted)
[4] = biological target: T1, Coenzyme A biosynthesis bifunctional protein CoaBC (Mycobacterium tuberculosis (strain ATCC 25618 / H37Rv), UniProt P9WNZ1); assay: Biomol Green assay for MtCoaBC inhibitor, OD650 read; assay type: functional
T1 sequence (P9WNZ1 whole entry): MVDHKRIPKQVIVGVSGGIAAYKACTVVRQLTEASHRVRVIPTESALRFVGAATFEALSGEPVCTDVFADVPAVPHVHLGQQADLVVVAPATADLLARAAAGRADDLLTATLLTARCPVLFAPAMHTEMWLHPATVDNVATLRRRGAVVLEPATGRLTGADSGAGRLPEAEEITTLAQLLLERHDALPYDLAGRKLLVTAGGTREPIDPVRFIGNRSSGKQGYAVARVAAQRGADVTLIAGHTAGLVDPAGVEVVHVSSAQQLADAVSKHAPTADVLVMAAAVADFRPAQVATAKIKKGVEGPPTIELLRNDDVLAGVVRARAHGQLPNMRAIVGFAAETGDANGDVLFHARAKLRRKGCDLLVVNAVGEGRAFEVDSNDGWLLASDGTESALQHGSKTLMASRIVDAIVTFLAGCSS

Histidine--tRNA ligase = biological target: T2, Histidine--tRNA ligase (Leishmania infantum, UniProt A4I591); assay: Leishmania infantum Histidine tRNA synthetase (LdHisRS); assay type: functional
T2 sequence (A4I591 whole entry): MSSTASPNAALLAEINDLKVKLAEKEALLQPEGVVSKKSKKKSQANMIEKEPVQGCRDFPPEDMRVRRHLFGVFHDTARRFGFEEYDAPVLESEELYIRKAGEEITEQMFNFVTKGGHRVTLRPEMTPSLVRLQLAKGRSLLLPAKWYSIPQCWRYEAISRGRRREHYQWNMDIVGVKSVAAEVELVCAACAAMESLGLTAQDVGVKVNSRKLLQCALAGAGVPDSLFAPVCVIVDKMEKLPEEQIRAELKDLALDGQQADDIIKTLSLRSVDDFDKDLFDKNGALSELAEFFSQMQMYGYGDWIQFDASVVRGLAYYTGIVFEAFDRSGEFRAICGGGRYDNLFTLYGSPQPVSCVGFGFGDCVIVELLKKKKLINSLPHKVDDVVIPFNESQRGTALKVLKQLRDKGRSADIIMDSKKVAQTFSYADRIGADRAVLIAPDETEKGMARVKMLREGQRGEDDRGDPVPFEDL

ClpP1P2 = ClpP1P2 (Mycobacterium tuberculosis (strain ATCC 25618 / H37Rv), UniProt P9WPC3+P9WPC5); assay: in vitro assay to detect presence of AMC directly proportional to the activity of ClpP1P2. GHDDI collaboration.; assay type: functional
Chain of ClpP1P2 (P9WPC5 whole entry): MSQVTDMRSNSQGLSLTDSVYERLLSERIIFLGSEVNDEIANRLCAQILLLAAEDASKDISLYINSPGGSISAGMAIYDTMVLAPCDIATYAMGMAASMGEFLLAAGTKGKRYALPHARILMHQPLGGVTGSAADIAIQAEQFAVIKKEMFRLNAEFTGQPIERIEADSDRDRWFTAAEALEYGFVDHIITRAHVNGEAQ
Chain of ClpP1P2 (P9WPC3 whole entry): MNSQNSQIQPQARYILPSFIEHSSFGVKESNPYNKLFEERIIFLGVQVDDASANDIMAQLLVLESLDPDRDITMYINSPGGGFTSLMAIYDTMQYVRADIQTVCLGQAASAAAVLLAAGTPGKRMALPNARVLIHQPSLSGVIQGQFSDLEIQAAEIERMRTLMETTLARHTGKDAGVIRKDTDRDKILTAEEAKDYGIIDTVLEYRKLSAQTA

Chain of Polyketide synthase Pks13 (I6X8D2 whole entry): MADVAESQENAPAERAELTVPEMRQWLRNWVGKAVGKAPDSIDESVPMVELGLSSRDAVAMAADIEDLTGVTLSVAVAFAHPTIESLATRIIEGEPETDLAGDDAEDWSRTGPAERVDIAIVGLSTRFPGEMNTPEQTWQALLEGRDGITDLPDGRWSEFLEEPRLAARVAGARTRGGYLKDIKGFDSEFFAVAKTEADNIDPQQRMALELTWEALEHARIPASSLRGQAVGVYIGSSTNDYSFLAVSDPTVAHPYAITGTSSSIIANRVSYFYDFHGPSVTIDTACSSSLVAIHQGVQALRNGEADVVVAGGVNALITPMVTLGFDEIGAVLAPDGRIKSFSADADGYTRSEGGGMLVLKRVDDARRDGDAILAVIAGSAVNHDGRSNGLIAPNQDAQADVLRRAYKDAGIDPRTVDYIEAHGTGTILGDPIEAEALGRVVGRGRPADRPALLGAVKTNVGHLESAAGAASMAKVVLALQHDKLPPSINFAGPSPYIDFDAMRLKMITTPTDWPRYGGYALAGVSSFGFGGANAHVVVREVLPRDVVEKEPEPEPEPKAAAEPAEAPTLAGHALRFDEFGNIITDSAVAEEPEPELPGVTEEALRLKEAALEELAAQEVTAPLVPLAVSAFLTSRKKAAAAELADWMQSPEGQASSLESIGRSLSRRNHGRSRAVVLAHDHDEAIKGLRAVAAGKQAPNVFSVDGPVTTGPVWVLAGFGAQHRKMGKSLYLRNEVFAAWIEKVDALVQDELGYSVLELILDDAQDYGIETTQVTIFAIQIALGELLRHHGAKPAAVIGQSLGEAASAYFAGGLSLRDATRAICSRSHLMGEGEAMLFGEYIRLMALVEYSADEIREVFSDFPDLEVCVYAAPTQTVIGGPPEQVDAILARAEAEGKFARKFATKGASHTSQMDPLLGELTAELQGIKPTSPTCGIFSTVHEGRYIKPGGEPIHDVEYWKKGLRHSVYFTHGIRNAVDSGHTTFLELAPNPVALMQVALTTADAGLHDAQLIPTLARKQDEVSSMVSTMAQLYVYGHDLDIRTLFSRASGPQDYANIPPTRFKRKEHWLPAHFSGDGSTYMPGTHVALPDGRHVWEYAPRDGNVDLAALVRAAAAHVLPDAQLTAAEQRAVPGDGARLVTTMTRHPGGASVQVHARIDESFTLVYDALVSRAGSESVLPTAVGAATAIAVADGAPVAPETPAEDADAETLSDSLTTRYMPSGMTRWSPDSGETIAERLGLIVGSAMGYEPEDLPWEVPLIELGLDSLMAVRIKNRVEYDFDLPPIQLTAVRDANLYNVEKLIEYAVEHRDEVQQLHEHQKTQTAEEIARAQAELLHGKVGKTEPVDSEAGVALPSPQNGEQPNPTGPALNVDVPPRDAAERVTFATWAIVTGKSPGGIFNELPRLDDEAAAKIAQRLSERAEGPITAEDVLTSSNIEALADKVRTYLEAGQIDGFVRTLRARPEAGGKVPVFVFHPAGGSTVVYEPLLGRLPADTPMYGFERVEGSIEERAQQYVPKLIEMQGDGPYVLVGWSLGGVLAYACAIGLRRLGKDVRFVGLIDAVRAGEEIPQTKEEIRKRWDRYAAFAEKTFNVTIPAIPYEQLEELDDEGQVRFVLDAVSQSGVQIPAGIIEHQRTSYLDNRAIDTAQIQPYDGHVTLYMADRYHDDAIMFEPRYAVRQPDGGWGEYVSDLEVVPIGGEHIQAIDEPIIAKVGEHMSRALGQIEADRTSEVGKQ
Chain of Lysine--tRNA ligase (Q8IDJ8 whole entry): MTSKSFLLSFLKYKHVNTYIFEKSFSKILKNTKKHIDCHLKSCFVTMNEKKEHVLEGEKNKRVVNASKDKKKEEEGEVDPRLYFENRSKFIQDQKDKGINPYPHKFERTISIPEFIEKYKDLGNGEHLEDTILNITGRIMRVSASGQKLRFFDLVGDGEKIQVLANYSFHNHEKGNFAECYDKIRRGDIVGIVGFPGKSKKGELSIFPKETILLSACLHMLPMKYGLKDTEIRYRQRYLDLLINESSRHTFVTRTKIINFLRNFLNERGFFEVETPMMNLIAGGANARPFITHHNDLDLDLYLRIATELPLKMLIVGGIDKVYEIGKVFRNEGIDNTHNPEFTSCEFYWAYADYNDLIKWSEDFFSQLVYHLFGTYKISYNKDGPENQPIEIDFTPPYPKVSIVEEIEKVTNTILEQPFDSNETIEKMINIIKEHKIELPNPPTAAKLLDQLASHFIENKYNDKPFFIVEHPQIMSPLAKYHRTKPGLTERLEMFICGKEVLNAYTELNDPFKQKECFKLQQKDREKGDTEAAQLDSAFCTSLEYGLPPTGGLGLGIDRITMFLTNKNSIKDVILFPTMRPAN

SMILES | IC50 (Wolbachia pipientis) [µM] | pIC50 (Wolbachia pipientis) | other results
NC(=O)C1CCN(c2nc3nccc(-c4ccccn4)c3c(=O)[nH]2)CC1 | > 10 | – | –
CCn1c(CNC(=O)Nc2nc(C)c(C)o2)nc2ccccc21 | 1.91 | 5.724 | –
COc1ccc(C(C)N(C)Cc2c(C(C)C)[nH]c3ncccc23)cc1 (centres undefined) | > 10 | – | –
CCc1sc(C(=O)NC2CC2)cc1C | > 10 | – | –
Cn1cc(NC(=O)c2cc[nH]n2)cc(Cl)c1=O | – | – | IC50 (Lysine--tRNA ligase): > 50.1 µM; IC50 [1]: > 100 µM; IC50 [2]: > 50.1 µM; IC50 [3]: > 50.1 µM
Cc1cnn(CC2CCCCN2C(=O)c2ccc(CN(C)C)cc2)c1 (centres undefined) | > 10 | – | –
Cc1c(CNCC(C)Oc2cccnc2)c2ccccc2n1CC(N)=O (centres undefined) | > 10 | – | –
CC(C)N(C(=O)c1csc(-c2ccoc2)n1)C1CCOCC1 | > 10 | – | –
COc1c(CNCC(O)COc2ccc3c(c2)OCO3)c(C)nn1C (centres undefined) | > 10 | – | –
Cc1ccccc1CNC(=O)Cn1nc(-c2ccc(F)cc2)oc1=O | > 10 | – | –
COc1ccc(Br)c(C(=O)NCC2CC2)c1 | > 10 | – | –
Cc1cc(NC(=O)CN2CCn3c(nnc3C3CC3)C2)on1 | > 10 | – | –
Cc1ccccc1C1CN(c2cnn(C)c(=O)c2Cl)CCO1 (centres undefined) | 7.69 | 5.107 | –
Cc1ncc(CN(C)Cn2nc(-c3ccccc3)oc2=O)s1 | 5 | 5.124 | –
Cc1ccc(CSc2nc(N)cc(NCCS(=O)(=O)N(C)C)n2)cc1 | 4.21 | 5.214 | –
CC(C)C(=O)Nc1ccc(C(O)Cn2nc(-c3cccs3)oc2=O)cc1 (centres undefined) | > 10 | – | –
CC(C)Cn1ncc2cc(C(=O)N(C)Cc3cccc(O)c3)cnc21 | > 10 | – | –
COc1cc(CNC(=O)c2c(C)noc2C)ccn1 | > 10 | – | –
CCOCCCn1c(NC(=O)c2cnc(C)s2)nc2ccccc21 | > 10 | – | –
CCc1ccc(CN(C)Cc2nc(COc3ccccc3)no2)nc1 | 9.16 | 5.105 | –

SMILES | IC50 (Wolbachia pipientis) [µM] | pIC50 (Wolbachia pipientis) | other results
c1ccc(-c2nc(CN3CCCC3Cn3cncn3)no2)cc1 (centres undefined) | > 10 | – | –
Cc1nn(C)c2nc(N3CCCCC3c3ccc(F)cc3)sc12 (centres undefined) | 2.24 | 5.674 | –
CN(CCc1ccccc1)Cc1cc(C(=O)N2CCN(C)C(=O)C2)no1 | > 10 | – | –
CC(c1ccco1)N(C(=O)c1cc2c([nH]c1=O)CCCC2=O)C1CC1 (centres undefined) | > 10 | – | –
CCc1ncc2c(n1)CN(CC1CCCCO1)CC2 (centres undefined) | – | – | IC50 (Lysine--tRNA ligase): > 50.1 µM; IC50 [1]: > 100 µM
CCC(Nc1nc(C)nc2onc(C)c12)c1nc(C)c(C)s1 (centres undefined) | 2.54 | 5.592 | –
Cc1nn(C)c(C)c1C1CCCN1Cc1nc2ccccc2o1 (centres undefined) | > 10 | 5.128 | –
COCC(=O)Nc1ccc(-c2noc([C@@H]3CCCN3C(C)C)n2)cn1 | 8.83 | 5.079 | –
Cc1cccc(N2CCN(C(=O)c3c(C)nn(C)c3C)CC2)c1C | 2.32 | 5.626 | –
N#Cc1cc(F)c(NCc2ccc(F)cc2)c(F)c1 | > 10 | – | –
CC(CNC1CCN(c2ccccn2)CC1)Oc1ccc(F)cc1 (centres undefined) | > 10 | – | –
O=C(CC1CC1)NCc1cc(=O)n2c(n1)CN(Cc1ccoc1)CCC2 | > 10 | – | –
CC(C)C(C(=O)N1CCCN(Cc2nccn2C)CC1)N1CCCC1 (centres undefined) | > 10 | – | –
CCCS(=O)(=O)N1CCN(c2cc(-n3nc(C)cc3C)nc(C)n2)CC1 | > 10 | – | –
CCCS(=O)(=O)NCc1ncc(C)c(OC)c1C | 1.37 | 5.88 | –
COc1cnc(N2CC(N3CCOCC3)C2)nc1-c1ccnn1C | – | – | IC50 [4]: > 50.1 µM; IC50 (Histidine--tRNA ligase): 5.05 µM and 10.5 µM; IC50 [1]: 52.6 µM and 31.8 µM; IC50 (ClpP1P2): > 100 µM
Cc1c[nH]c(CN2CCOC(c3ccc(Cl)c(Cl)c3)C2)c(C)c1=O (centres undefined) | 3.83 | 5.368 | –
CCC(CC)C(O)CNC(=O)Nc1cc(C)nn1C (centres undefined) | > 10 | – | –
CN(C)c1cc(CNCc2ccc(N3CCOCC3)cc2)ccn1 | > 10 | – | –
Cc1noc(-c2ccnc(Oc3ccc(CN4CCCC4)cc3C)c2)n1 | – | 5.704 and 5.368 | –
